Results taken from patent US10646594B2, “Deuterated metabolic water precursor for detecting and treating diseased tissue” (CASE WESTERN RESERVE UNIVERSITY, priority 2009, dated 2020).

Experiments:
[1] = DMR measurement of deuterated glucose metabolism in mice; type: in vivo, mice (C57/BL6); conditions: mice injected iv or ip with 8.9 mg deuterated glucose, whole-body DMR spectrum
Procedure: (§1) DMR measurements (AQ 0.2s; TR 0.3s; NS 128; LB 30; 38s/spectrum) were performed at 9.4 T on a wide bore (89 mm) Bruker Avance microimager equipped with a multinuclear probe. A set of experiments was performed on three male mice (C57/BL6) and another set, on Tenebrio molitor larvae. Mouse 1 (25 g), was injected iv with 8.9 mg deuterated glucose (ISOTEC) dissolved in 0.4 ml saline solution; it was sacrificed after 1.5 hr and, after dissection, its whole body (except fur and skin) was placed in a 20 mm NMR tube for running the DMR spectrum (shown in FIG. 4, upper trace). Mouse 2, (32 g) injected ip with the same amount of glucose-d7 as mouse 1 was sacrificed after 3.5 hr, and yielded the spectrum seen in the same FIG. 4, second trace. Tenebrio molitor larvae were starved for several days, then placed in a 20 mm NMR tube together with food consisting of 0.4 g bran wetted with an aqueous solution of deuterated glucose.

[2] = DMR measurement of deuterated glucose metabolism in Tenebrio molitor larvae; type: in vivo; conditions: starved larvae fed bran wetted with aqueous deuterated glucose, 2H spectrum
Procedure: as §1
In our approach, the excellent tracer quality of deuterium (natural abundance 0.015%) is combined with the fact that only two well separated peaks are to be measured; that of nascent metabolic water, and that of the aliphatic chain of fatty acids. Thus, in spite of their large line widths (100-230 Hz) due to the electric quadrupole moment and unfavorable correlation times, the spectra can be interpreted in a quantitative manner. […]

malignant cells = conditions: Kushner et al. 1999; cited from earlier work

SMILES | consumption of deuterated glucose ([1]; sacrificed after 1.5 hr or 3.5 hr) | metabolic fate of deuterated glucose (metabolic water / fat) [1] | incorporation of D-label into fat [2] | metabolism of glucose into deuterated water ([2]; end of the experiment) | toxicity to malignant cells compared with normal animal cells (malignant cells)
[2H]C1(O)O[C@]([2H])(C([2H])([2H])O)[C@@]([2H])(O)[C@]([2H])(O)[C@@]1([2H])O (stereo partly drawn) [deuterated glucose, D-7 Glucose[1,2,3,4,5,6,6-2H7]] | all deuterated glucose was consumed by the mice | most of it provided protons for the formation of metabolic water, part of it was metabolized into fat | did not incorporate a visible amount of D-label into fat | all glucose was metabolized into deuterated water | –
[2H]O[2H] [D2O] | – | – | – | – | more toxic to malignant cells than normal animal cells
